The values below come from article PMC10253321, “Effects of Phosphorylation on the Activity, Inhibition and Stability of Carbonic Anhydrases” (International Journal of Molecular Sciences, 2023).

The subject of series [1] is hCAII. Further details: method as in PMID 12713833. To be noted: pH 7.8; cited from earlier work.
For series [2], the system named is hCAI. Set-up: method as in PMID 12713833. To be noted: pH 7.8; cited from earlier work.
Series [3] in a line: Esterase activity assay in whole-cell lysates. Type of series: biochemical, human. To be noted: kcat/KM vs unmodified isoform.
The nature of series [4]: Differential scanning fluorimetry. Type of series: physicochemical, human. On the procedure: The diminished activity of hCAII^S29E and hCAI^S30E can be attributed to protein unfolding or misfolding upon introduction of a charged residue close to the hydrophobic side of the ligand-binding pocket. The phosphomimic hCAII^S29E was only expressed as a soluble protein when using ArcticExpress E. coli at 10 °C but not with T7 Express or C43 (DE3) E. coli. In ArticExpress cells, a cold-adapted chaperonin is co-expressed to assist folding at low temperatures. In addition, hCAI^S30E expresses at a very low yield in the soluble fraction even with the ArcticExpress system, and below detectable levels in T7 Express or C43 (DE3) E. coli. Moreover, an S > E mutation at Ser29 in another cytosolic carbonic anhydrase isoform (hCAIII) destabilizes the protein and decreases the melting temperature from 59 °C to 43 °C in differential scanning fluorimetry (Figure S5).

For `CC(=O)Oc1ccc([N+](=O)[O-])cc1` [pNPA, p-nitrophenyl acetate], the Km (in general, the concentration of substrate that gives half-maximal velocity) is 2.92 mM in series [1] and 15.4 mM in series [2].

Take “hCAI S30E: human carbonic anhydrase I phosphomimic, Ser30 to Glu”: in series [3], the “fold decrease in catalytic activity compared to the respective unmodified isoform” value is on record as 2.7 fold.

B1: hCAIII: cytosolic human carbonic anhydrase isoform III (protein, UniProt P07451 2-260, looked up)
Carbonic anhydrase 3: AKEWGYASHNGPDHWHELFPNAKGENQSPVELHTKDIRHDPSLQPWSVSYDGGSAKTILNNGKTCRVVFDDTYDRSMLRGGPLPGPYRLRQFHLHWGSSDDHGSEHTVDGVKYAAELHLVHWNPKYNTFKEALKQRDGIAVIGIFLKIGHENGEFQIFLDALDKIKTKGKEAPFTKFDPSCLFPACRDYWTYQGSFTTPPCEECIVWLLLKEPMTVSSDQMAKLRSLLSSAENEPPVPLVSNWRPPQPINNRVVRASFK
B1 yielded a melting temperature in series [4] of 59 °C.
